Columns and labels:
[1] = target: T1, Serine/threonine-protein kinase NLK (Homo sapiens) (UniProt Q9UBE8); test: Selectivity interaction (Kinase panel (Invitrogen)) EUB0000639a NLK; settings: at 200 nM
T1 sequence (whole entry): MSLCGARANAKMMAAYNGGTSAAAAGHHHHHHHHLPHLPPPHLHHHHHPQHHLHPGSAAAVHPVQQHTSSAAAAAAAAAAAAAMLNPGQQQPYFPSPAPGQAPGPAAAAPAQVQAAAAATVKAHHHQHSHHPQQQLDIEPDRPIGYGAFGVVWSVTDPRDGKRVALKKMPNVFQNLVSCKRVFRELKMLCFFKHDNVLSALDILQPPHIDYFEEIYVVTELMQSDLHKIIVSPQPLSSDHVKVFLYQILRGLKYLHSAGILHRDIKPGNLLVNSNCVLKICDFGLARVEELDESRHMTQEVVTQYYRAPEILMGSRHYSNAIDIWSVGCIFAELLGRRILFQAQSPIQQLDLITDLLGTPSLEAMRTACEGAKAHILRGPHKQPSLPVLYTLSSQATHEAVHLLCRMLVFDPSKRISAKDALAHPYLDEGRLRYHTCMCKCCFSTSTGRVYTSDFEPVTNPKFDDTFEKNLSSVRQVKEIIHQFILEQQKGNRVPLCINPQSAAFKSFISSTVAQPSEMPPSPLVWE

[2] = target: T2, Serine/threonine-protein kinase DCLK3 (Homo sapiens) (UniProt Q9C098); test: Selectivity interaction (KinomeScan (DiscoverX)) EUB0000595a DCLK3; settings: at 10 µM
T2 sequence (whole entry): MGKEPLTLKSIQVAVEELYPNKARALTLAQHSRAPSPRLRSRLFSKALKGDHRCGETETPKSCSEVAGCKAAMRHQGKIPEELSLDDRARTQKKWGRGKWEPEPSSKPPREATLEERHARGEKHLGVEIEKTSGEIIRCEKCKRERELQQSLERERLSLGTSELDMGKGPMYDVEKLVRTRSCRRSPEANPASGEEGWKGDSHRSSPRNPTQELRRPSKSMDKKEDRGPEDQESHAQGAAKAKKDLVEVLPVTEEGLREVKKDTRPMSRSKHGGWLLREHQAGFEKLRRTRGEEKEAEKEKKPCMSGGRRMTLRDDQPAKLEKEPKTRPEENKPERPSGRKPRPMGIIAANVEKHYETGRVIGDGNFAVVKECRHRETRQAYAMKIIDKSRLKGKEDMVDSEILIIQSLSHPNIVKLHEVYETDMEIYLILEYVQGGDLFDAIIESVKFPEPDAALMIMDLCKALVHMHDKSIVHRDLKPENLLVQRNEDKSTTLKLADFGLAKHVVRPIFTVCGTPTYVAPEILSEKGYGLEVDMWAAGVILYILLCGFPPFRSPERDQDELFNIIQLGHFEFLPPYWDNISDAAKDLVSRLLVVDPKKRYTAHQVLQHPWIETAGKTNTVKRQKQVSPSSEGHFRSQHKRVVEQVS

[3] = target: Serine/threonine-protein kinase NIM1 (Homo sapiens, UniProt Q8IY84); test: Selectivity interaction (Ambit KINOMEscan and KiNATiv profiling in Jurkat cells) EUB0000090b NIM1K; format: cell-based; settings: at 1 µM
[4] = target: T3, Phosphatidylinositol 3-kinase C2 domain-containing subunit gamma (Homo sapiens) (UniProt O75747); test: Selectivity interaction (Ambit KINOMEscan and KiNATiv profiling in Jurkat cells) EUB0000090b PIK3C2G; format: cell-based; settings: at 1 µM
T3 sequence (whole entry): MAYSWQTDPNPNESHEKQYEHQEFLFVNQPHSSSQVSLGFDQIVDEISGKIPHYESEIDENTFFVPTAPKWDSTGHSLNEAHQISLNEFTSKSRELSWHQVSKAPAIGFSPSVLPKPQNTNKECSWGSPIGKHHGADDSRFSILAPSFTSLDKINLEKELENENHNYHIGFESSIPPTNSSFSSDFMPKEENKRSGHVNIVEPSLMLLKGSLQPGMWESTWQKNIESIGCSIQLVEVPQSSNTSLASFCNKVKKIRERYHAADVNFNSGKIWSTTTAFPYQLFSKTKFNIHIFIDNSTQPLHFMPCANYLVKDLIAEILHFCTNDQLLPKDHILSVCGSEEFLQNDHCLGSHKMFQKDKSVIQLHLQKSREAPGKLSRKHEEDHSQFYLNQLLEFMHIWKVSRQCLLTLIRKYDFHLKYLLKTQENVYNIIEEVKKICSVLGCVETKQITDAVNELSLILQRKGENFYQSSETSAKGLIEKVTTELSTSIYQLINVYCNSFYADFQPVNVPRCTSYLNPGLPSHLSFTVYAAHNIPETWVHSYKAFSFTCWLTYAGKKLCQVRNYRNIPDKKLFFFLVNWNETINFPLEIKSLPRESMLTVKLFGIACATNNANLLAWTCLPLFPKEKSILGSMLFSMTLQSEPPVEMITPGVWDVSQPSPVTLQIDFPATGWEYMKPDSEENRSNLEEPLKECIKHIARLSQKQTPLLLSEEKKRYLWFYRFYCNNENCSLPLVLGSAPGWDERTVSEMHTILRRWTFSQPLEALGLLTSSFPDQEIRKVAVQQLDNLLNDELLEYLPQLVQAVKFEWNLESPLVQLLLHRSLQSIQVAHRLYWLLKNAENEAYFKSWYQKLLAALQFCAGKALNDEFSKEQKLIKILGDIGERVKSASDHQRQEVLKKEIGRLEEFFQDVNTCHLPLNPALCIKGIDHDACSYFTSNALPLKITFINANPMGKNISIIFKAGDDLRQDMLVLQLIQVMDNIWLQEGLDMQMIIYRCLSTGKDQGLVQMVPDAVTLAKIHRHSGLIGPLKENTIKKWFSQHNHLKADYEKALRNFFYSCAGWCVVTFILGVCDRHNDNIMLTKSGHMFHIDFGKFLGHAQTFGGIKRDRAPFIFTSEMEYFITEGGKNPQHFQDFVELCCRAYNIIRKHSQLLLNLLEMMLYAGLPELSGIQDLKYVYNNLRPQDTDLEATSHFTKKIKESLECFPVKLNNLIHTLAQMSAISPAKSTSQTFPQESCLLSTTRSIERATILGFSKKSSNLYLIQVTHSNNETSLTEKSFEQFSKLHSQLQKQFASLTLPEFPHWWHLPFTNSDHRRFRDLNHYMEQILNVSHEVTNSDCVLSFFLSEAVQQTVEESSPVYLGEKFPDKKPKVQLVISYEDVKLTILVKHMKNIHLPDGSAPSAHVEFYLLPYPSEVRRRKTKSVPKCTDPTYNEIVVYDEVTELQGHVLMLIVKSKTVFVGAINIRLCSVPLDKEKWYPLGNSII

[5] = target: Misshapen-like kinase 1 (Homo sapiens, UniProt Q8N4C8); test: Selectivity interaction (KinomeScan (DiscoverX)) EUB0000655a MINK1; settings: at 10 µM
[6] = target: Macrophage-stimulating protein receptor (Homo sapiens, UniProt Q04912); test: Selectivity interaction (SelectScreen profiling (Invitrogen)) EUB0000607a MST1R; settings: at 2 µM
[7] = target: Macrophage colony-stimulating factor 1 receptor (Homo sapiens) (UniProt P07333); test: Selectivity interaction (ProQinase) EUB0000171b CSF1R
Macrophage colony-stimulating factor 1 receptor (Homo sapiens), sequence (P07333 whole entry): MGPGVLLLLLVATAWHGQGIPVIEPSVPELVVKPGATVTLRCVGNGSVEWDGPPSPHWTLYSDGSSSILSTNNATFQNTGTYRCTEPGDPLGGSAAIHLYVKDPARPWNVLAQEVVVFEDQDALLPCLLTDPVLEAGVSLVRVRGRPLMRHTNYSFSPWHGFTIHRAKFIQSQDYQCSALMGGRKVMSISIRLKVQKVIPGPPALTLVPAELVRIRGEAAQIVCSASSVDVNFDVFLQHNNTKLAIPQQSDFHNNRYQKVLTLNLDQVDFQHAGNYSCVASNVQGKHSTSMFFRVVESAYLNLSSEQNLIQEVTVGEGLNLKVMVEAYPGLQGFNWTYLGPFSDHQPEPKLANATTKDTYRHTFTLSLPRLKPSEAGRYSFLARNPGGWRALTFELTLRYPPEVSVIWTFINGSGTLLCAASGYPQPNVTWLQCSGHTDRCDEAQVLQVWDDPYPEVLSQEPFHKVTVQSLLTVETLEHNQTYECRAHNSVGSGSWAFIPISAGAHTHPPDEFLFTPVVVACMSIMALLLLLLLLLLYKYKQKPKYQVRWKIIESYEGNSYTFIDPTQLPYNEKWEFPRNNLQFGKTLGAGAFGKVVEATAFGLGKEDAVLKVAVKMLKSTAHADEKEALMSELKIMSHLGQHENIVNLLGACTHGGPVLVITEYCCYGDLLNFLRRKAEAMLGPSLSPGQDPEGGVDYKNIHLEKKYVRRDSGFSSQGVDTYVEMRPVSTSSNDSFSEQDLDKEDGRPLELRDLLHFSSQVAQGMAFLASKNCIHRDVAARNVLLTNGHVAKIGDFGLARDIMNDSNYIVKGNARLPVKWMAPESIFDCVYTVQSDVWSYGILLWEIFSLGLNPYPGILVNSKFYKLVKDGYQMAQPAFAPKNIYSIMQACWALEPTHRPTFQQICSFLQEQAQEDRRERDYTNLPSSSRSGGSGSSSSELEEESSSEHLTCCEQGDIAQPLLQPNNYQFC

Serine/threonine-protein kinase NIM1, sequence (Q8IY84 whole entry, the tested form may be a part): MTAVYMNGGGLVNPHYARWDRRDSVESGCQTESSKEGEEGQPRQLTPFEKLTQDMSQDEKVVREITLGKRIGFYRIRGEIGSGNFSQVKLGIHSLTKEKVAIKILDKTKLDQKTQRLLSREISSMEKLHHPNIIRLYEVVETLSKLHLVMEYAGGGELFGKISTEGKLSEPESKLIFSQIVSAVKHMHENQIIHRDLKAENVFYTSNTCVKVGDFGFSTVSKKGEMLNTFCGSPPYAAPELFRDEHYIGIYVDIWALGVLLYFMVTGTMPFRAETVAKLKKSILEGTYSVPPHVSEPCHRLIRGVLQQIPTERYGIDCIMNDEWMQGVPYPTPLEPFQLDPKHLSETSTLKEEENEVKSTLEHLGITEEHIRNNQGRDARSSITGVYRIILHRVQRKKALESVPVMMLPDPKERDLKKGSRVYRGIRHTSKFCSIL
Misshapen-like kinase 1, sequence (Q8N4C8 whole entry, looked up): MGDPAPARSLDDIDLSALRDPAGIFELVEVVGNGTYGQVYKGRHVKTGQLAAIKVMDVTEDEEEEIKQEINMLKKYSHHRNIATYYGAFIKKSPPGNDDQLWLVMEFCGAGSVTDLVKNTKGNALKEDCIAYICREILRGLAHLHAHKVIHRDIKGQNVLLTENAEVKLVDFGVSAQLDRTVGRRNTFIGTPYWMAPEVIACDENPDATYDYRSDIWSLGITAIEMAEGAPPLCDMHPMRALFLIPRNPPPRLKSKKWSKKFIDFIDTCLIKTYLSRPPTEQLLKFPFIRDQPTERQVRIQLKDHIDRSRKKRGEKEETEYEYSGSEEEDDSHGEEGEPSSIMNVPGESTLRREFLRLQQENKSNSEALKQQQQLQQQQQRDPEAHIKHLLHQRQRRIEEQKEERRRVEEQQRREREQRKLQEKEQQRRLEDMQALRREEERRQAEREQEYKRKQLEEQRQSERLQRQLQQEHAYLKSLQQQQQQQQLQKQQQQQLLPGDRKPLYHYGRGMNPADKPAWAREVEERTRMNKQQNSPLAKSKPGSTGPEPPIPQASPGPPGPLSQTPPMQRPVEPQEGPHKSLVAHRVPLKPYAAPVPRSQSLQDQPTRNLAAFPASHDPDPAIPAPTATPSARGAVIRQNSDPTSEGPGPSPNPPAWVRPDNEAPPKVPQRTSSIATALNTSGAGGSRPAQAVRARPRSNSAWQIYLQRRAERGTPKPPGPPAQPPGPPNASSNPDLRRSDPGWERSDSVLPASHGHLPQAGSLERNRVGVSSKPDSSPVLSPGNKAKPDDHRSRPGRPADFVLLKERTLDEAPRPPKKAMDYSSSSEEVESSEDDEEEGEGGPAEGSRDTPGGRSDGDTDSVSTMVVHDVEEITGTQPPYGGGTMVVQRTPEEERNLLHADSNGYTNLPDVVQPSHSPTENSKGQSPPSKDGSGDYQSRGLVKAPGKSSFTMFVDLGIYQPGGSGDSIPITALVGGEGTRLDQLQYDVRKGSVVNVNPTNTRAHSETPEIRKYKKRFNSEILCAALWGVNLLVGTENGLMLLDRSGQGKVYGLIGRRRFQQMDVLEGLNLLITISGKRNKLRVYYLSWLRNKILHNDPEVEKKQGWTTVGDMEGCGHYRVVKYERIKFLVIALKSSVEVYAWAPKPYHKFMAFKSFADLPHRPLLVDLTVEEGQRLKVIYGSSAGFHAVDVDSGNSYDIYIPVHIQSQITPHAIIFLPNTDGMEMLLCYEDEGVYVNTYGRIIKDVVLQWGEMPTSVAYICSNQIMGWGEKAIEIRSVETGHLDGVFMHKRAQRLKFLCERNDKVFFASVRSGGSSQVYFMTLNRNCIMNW
Macrophage-stimulating protein receptor, sequence (Q04912 25-304 limits assumed): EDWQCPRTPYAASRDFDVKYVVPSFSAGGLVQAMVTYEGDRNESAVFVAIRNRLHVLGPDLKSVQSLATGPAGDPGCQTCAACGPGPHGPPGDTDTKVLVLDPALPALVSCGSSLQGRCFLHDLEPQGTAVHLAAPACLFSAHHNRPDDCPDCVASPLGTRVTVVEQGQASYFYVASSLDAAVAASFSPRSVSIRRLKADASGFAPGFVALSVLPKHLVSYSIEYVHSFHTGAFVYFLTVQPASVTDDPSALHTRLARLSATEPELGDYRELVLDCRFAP
Macrophage-stimulating protein receptor, sequence (Q04912 310-1400 limits assumed): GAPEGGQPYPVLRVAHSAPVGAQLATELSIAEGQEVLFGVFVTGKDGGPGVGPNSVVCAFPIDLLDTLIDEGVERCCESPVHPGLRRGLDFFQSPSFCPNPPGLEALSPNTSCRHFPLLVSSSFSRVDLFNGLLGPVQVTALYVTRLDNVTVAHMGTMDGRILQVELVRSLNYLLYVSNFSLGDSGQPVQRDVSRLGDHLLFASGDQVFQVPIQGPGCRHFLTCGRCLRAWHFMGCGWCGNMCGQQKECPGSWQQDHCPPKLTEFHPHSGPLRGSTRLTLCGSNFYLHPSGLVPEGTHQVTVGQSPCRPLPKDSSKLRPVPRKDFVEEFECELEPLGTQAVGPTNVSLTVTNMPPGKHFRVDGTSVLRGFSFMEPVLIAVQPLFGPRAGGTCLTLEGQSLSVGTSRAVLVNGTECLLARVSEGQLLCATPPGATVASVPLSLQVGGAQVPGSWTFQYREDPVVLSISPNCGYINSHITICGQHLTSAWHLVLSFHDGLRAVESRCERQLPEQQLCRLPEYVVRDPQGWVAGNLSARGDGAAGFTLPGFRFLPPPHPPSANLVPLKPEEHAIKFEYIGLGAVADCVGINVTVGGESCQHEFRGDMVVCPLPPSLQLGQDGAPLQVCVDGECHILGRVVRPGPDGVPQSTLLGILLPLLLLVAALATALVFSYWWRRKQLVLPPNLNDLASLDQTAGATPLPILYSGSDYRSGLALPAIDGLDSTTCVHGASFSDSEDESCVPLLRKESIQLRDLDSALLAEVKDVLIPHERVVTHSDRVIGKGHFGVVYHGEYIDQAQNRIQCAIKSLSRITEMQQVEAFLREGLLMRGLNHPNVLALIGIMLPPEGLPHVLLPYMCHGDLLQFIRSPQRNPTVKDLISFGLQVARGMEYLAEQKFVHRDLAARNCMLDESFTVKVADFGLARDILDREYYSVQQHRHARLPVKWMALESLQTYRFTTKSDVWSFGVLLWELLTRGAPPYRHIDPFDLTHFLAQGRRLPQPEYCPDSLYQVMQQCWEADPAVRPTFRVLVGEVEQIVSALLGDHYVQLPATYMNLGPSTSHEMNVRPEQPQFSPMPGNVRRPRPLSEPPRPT

Question: How did the % of inhibition [1] turn out when CC[C@@H]1[C@H](F)C(=O)N[C@@H]1COc1nccc2cc(C(N)=O)c(OC)cc12 [ZIMLOVISERTIB] was run?
Answer: 10.2%

Question: COCC(=O)NC/C=C/c1ccc2ncnc(Nc3ccc(Oc4ccc(C)nc4)c(C)c3)c2c1 [CP-724714] was tested. Which % of control [2] did it give?
Answer: 83%

Question: With CN(C)C/C=C/C(=O)Nc1ccc(C(=O)N2CCCC(Nc3ncc(Cl)c(-c4c[nH]c5ccccc45)n3)C2)cc1 (stereo not drawn) as the molecule, how does the % of control [3] read?
Answer: 93%

Question: And the % of control [4]?
Answer: 100%

Question: How did the % of control [5] turn out when CN(C)CCOc1ccc(-c2nc(-c3ccncc3)c(-c3ccc4c(c3)CC/C4=N\O)[nH]2)cc1 was run?
Answer: 6%

Question: For CNC(=O)Nc1ccc(-c2nc(N3CC4CCC(C3)O4)c3cnn(C4CCC5(CC4)OCCO5)c3n2)cc1, which % of inhibition [6] is on record?
Answer: -1%

Question: With C=CC(=O)Nc1cccc(C(=O)Nc2ccc(Nc3cc(-c4[nH]c(SC)nc4C)ccn3)cc2)c1 as the molecule, how does the % of control ([7]; at 1 µM) read?
Answer: 106%

Question: What about the % of control ([7]; at 5 µM) of the same molecule?
Answer: 69%

From ChEMBL document CHEMBL5465560, “Selectivity Literature for EUbOPEN Chemogenomic Library” (2024)
